Test results reported in PubChem BioAssay AID1963986 (Molecular Pharmacology Branch, DTP, NCI, 2024).

Tested on: 171881-019-R-J1-PDC tumor spheroid viability
Test: Anticancer human tumor 171881-019-R-J1-PDC patient-derived invasive breast carcinoma cell line growth inhibition [PI3K]
Settings: spheroids with HUVEC and MSC; for IC50: curve of first compound; for viability, T/C: stronger effect = lower value
Method in brief: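 Tumor cells grown as multi-cell spheroids with HUVEC endothelial cells and MSC fibroblast-like stroma were treated with targeted agents combined with inavolisib, alpelisib, duvelisib or copanlisib. Doses fell in half-log steps from near clinical Cmax, else from 10 microM. Viability was measured.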

[1] = second compound 0.0316 µM, first compound 0.0316 µM
[2] = second compound 0.0316 µM, first compound 0.1 µM
[3] = second compound 0.0316 µM, first compound 0.316 µM
[4] = second compound 0.0316 µM, first compound 1 µM
[5] = second compound 0.0316 µM, first compound 3.16 µM
[6] = second compound 0.0316 µM, first compound 10 µM
[7] = second compound 0.1 µM, first compound 0.0316 µM
[8] = second compound 0.1 µM, first compound 0.1 µM
[9] = second compound 0.1 µM, first compound 0.316 µM
[10] = second compound 0.1 µM, first compound 1 µM
[11] = second compound 0.1 µM, first compound 3.16 µM
[12] = second compound 0.1 µM, first compound 10 µM
[13] = second compound 0.316 µM, first compound 0.0316 µM
[14] = second compound 0.316 µM, first compound 0.1 µM
[15] = second compound 0.316 µM, first compound 0.316 µM
[16] = second compound 0.316 µM, first compound 1 µM
[17] = second compound 0.316 µM, first compound 3.16 µM
[18] = second compound 0.316 µM, first compound 10 µM
[19] = second compound 1 µM, first compound 0.0316 µM
[20] = second compound 1 µM, first compound 0.1 µM
[21] = second compound 1 µM, first compound 0.316 µM
[22] = second compound 1 µM, first compound 1 µM
[23] = second compound 1 µM, first compound 3.16 µM
[24] = second compound 1 µM, first compound 10 µM
[25] = second compound 3.16 µM, first compound 0.0316 µM
[26] = second compound 3.16 µM, first compound 0.1 µM
[27] = second compound 3.16 µM, first compound 0.316 µM
[28] = second compound 3.16 µM, first compound 1 µM
[29] = second compound 3.16 µM, first compound 3.16 µM
[30] = second compound 3.16 µM, first compound 10 µM
[31] = second compound 10 µM, first compound 0.0316 µM
[32] = second compound 10 µM, first compound 0.1 µM
[33] = second compound 10 µM, first compound 0.316 µM
[34] = second compound 10 µM, first compound 1 µM
[35] = second compound 10 µM, first compound 3.16 µM
[36] = second compound 10 µM, first compound 10 µM
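Further: spheroids exposed to compound for 7 days before viability read.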
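Wherever viability, T/C is given: 100% = DMSO vehicle-treated spheroids.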

C#Cc1c(F)ccc2cc(O)cc(-c3ncc4c(N5CC6CCC(C5)N6)nc(OCC56CCCN5CC(F)C6)nc4c3F)c12 (stereo not given) + CC(Nc1ncnc2nc[nH]c12)c1cc2cccc(Cl)c2c(=O)n1-c1ccccc1
IC50 (second compound 0.0316 µM): 562 nM
IC50 (second compound 0.1 µM): 655 nM
IC50 (second compound 0.316 µM): 440 nM
IC50 (second compound 1 µM): 314 nM
IC50 (second compound 3.16 µM): 108 nM
IC50 (second compound 10 µM): < 31.6 nM
viability, T/C [1]: 89.6%
viability, T/C [2]: 78.5%
viability, T/C [3]: 54%
viability, T/C [4]: 44.5%
viability, T/C [5]: 35.7%
viability, T/C [6]: 29.4%
viability, T/C [7]: 78.6%
viability, T/C [8]: 80.1%
viability, T/C [9]: 57%
viability, T/C [10]: 43.9%
viability, T/C [11]: 34.7%
viability, T/C [12]: 24.3%
viability, T/C [13]: 83.3%
viability, T/C [14]: 71%
viability, T/C [15]: 51.6%
viability, T/C [16]: 41.8%
viability, T/C [17]: 29.7%
viability, T/C [18]: 23.2%
viability, T/C [19]: 76%
viability, T/C [20]: 68.8%
viability, T/C [21]: 47.9%
viability, T/C [22]: 34.3%
viability, T/C [23]: 26.6%
viability, T/C [24]: 19.7%
viability, T/C [25]: 72.2%
viability, T/C [26]: 50.1%
viability, T/C [27]: 37.1%
viability, T/C [28]: 23.9%
viability, T/C [29]: 18.2%
viability, T/C [30]: 13.4%
viability, T/C [31]: 49.8%
viability, T/C [32]: 32.6%
viability, T/C [33]: 21.5%
viability, T/C [34]: 16.9%
viability, T/C [35]: 10.3%
viability, T/C [36]: 6.78%

C=CC(=O)N1CCN(c2nc(=O)n(-c3c(C)ccnc3C(C)C)c3nc(-c4c(O)cccc4F)c(F)cc23)C(C)C1 (stereo not given) + CC(Nc1ncnc2nc[nH]c12)c1cc2cccc(Cl)c2c(=O)n1-c1ccccc1
IC50 (second compound 0.0316 µM): > 10000 nM
IC50 (second compound 0.1 µM): > 10000 nM
IC50 (second compound 0.316 µM): > 10000 nM
IC50 (second compound 1 µM): > 10000 nM
IC50 (second compound 3.16 µM): 9100 nM
IC50 (second compound 10 µM): 5290 nM
viability, T/C [1]: 95.3%
viability, T/C [2]: 94.3%
viability, T/C [3]: 94.6%
viability, T/C [4]: 94.3%
viability, T/C [5]: 106%
viability, T/C [6]: 58.9%
viability, T/C [7]: 104%
viability, T/C [8]: 88.7%
viability, T/C [9]: 87.2%
viability, T/C [10]: 84.1%
viability, T/C [11]: 108%
viability, T/C [12]: 57.6%
viability, T/C [13]: 108%
viability, T/C [14]: 103%
viability, T/C [15]: 98.9%
viability, T/C [16]: 112%
viability, T/C [17]: 105%
viability, T/C [18]: 61%
viability, T/C [19]: 101%
viability, T/C [20]: 105%
viability, T/C [21]: 106%
viability, T/C [22]: 112%
viability, T/C [23]: 99.4%
viability, T/C [24]: 53.4%
viability, T/C [25]: 96.3%
viability, T/C [26]: 88.3%
viability, T/C [27]: 90.6%
viability, T/C [28]: 93.1%
viability, T/C [29]: 88.2%
viability, T/C [30]: 46.6%
viability, T/C [31]: 63.9%
viability, T/C [32]: 60.9%
viability, T/C [33]: 65.6%
viability, T/C [34]: 68.6%
viability, T/C [35]: 64.5%
viability, T/C [36]: 32%

CC(Cn1ccc(-c2ccc(C#N)c(Cl)c2)n1)NC(=O)c1cc(C(C)O)[nH]n1 (stereo not given) + CC(Nc1ncnc2nc[nH]c12)c1cc2cccc(Cl)c2c(=O)n1-c1ccccc1
IC50 (second compound 0.0316 µM): > 10000 nM
IC50 (second compound 0.1 µM): > 10000 nM
IC50 (second compound 0.316 µM): > 10000 nM
IC50 (second compound 1 µM): > 10000 nM
IC50 (second compound 3.16 µM): > 10000 nM
IC50 (second compound 10 µM): 5120 nM
viability, T/C [1]: 85.5%
viability, T/C [2]: 85%
viability, T/C [3]: 93%
viability, T/C [4]: 70.3%
viability, T/C [5]: 68.9%
viability, T/C [6]: 59.1%
viability, T/C [7]: 80.6%
viability, T/C [8]: 105%
viability, T/C [9]: 87.8%
viability, T/C [10]: 77.6%
viability, T/C [11]: 81%
viability, T/C [12]: 62.1%
viability, T/C [13]: 96.3%
viability, T/C [14]: 94.9%
viability, T/C [15]: 88.5%
viability, T/C [16]: 91.2%
viability, T/C [17]: 82%
viability, T/C [18]: 66.7%
viability, T/C [19]: 104%
viability, T/C [20]: 93.8%
viability, T/C [21]: 87.8%
viability, T/C [22]: 94.9%
viability, T/C [23]: 92%
viability, T/C [24]: 64.7%
viability, T/C [25]: 86.7%
viability, T/C [26]: 93.4%
viability, T/C [27]: 83.6%
viability, T/C [28]: 82.8%
viability, T/C [29]: 85%
viability, T/C [30]: 58.9%
viability, T/C [31]: 60.3%
viability, T/C [32]: 59.5%
viability, T/C [33]: 55.9%
viability, T/C [34]: 56.2%
viability, T/C [35]: 57.4%
viability, T/C [36]: 40.1%

Cn1ncc(Cl)c1-c1cc(C(=O)NC(CN)Cc2cccc(F)c2)sc1Cl (stereo not given) + CC(Nc1ncnc2nc[nH]c12)c1cc2cccc(Cl)c2c(=O)n1-c1ccccc1
IC50 (second compound 0.0316 µM): 144 nM
IC50 (second compound 0.1 µM): 174 nM
IC50 (second compound 0.316 µM): 164 nM
IC50 (second compound 1 µM): 150 nM
IC50 (second compound 3.16 µM): 125 nM
IC50 (second compound 10 µM): 70.7 nM
viability, T/C [1]: 88.2%
viability, T/C [2]: 58.2%
viability, T/C [3]: 32.5%
viability, T/C [4]: 20.9%
viability, T/C [5]: 13.4%
viability, T/C [6]: 3.64%
viability, T/C [7]: 81.7%
viability, T/C [8]: 64.9%
viability, T/C [9]: 33.2%
viability, T/C [10]: 20.6%
viability, T/C [11]: 13.3%
viability, T/C [12]: 6.15%
viability, T/C [13]: 86.4%
viability, T/C [14]: 62.4%
viability, T/C [15]: 32.8%
viability, T/C [16]: 21.4%
viability, T/C [17]: 13.1%
viability, T/C [18]: 4.15%
viability, T/C [19]: 72.2%
viability, T/C [20]: 59.6%
viability, T/C [21]: 33.7%
viability, T/C [22]: 18.5%
viability, T/C [23]: 11.6%
viability, T/C [24]: 3.79%
viability, T/C [25]: 78.5%
viability, T/C [26]: 55.3%
viability, T/C [27]: 30.4%
viability, T/C [28]: 17.1%
viability, T/C [29]: 9%
viability, T/C [30]: 2.75%
viability, T/C [31]: 62.5%
viability, T/C [32]: 44.8%
viability, T/C [33]: 25.2%
viability, T/C [34]: 12.3%
viability, T/C [35]: 6.81%
viability, T/C [36]: 2.88%

Cn1nccc1Nc1nccc(-c2ccn(C(CO)c3ccc(Cl)c(F)c3)c(=O)c2)n1 (stereo not given) + CC(Nc1ncnc2nc[nH]c12)c1cc2cccc(Cl)c2c(=O)n1-c1ccccc1
IC50 (second compound 0.0316 µM): 544 nM
IC50 (second compound 0.1 µM): 472 nM
IC50 (second compound 0.316 µM): 471 nM
IC50 (second compound 1 µM): 345 nM
IC50 (second compound 3.16 µM): 168 nM
IC50 (second compound 10 µM): 35.5 nM
viability, T/C [1]: 94%
viability, T/C [2]: 84%
viability, T/C [3]: 62.2%
viability, T/C [4]: 36.6%
viability, T/C [5]: 24%
viability, T/C [6]: 20.7%
viability, T/C [7]: 91.1%
viability, T/C [8]: 88.1%
viability, T/C [9]: 54.7%
viability, T/C [10]: 37.1%
viability, T/C [11]: 23.6%
viability, T/C [12]: 19.9%
viability, T/C [13]: 104%
viability, T/C [14]: 89.6%
viability, T/C [15]: 56.9%
viability, T/C [16]: 35.1%
viability, T/C [17]: 23.1%
viability, T/C [18]: 18.5%
viability, T/C [19]: 98.4%
viability, T/C [20]: 77.4%
viability, T/C [21]: 51.4%
viability, T/C [22]: 31.3%
viability, T/C [23]: 21.3%
viability, T/C [24]: 15.7%
viability, T/C [25]: 79.3%
viability, T/C [26]: 61.2%
viability, T/C [27]: 36%
viability, T/C [28]: 21.8%
viability, T/C [29]: 14.9%
viability, T/C [30]: 13%
viability, T/C [31]: 51.3%
viability, T/C [32]: 39.2%
viability, T/C [33]: 27.9%
viability, T/C [34]: 15%
viability, T/C [35]: 10.6%
viability, T/C [36]: 6.93%
